This passage reports Ki results from patent US8710065B2, “Tricyclic inhibitors of kinases” (AbbVie Inc., priority 2011, dated 2014).

T1 sequence (P30291 whole entry): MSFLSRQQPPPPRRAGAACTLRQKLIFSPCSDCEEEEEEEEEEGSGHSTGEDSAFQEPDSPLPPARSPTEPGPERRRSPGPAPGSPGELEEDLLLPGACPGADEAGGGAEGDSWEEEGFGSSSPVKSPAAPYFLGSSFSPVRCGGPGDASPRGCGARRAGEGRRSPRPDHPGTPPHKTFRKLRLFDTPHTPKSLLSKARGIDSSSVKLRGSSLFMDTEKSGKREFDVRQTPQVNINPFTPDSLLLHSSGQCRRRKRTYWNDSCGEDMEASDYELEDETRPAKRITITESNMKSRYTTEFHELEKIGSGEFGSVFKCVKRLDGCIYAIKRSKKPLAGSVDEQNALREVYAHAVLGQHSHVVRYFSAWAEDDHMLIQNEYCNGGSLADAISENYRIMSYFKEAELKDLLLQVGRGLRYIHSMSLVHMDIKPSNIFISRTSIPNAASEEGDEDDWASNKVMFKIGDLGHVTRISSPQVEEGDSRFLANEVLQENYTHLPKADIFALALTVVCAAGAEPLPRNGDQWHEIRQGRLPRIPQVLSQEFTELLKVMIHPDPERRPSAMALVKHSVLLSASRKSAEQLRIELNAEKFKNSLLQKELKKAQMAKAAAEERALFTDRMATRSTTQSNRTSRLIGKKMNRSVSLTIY

This experiment has as its target T1, GST-tagged-Wee1 kinase (Homo sapiens, UniProt P30291).
T1 construct: purchased Carnabio (Carna Biosciences) 05-177
In words: Wee1 time-resolved fluorescence equilibrium binding assay (displacement of Oregon Green-labeled ATP-competitive kinase probe). The settings on record: read-out: Wee-1 inhibition (Ki). The method, then:
Wee1 kinase was assayed using a time-resolved fluorescence equilibrium binding assay monitoring displacement of a rapidly reversible Oregon Green-labeled ATP-competitive kinase probe (N-(2-(2-(2-(4-(4-(5-chloro-4-(2-(1-hydroxycyclobutyl)thiazol-5-yl)-1H-pyrrolo[2,3-b]pyridin-2-yl)phenyl)piperazin-1-yl)ethoxy)ethoxy)ethyl)-2′,7′-difluoro-3′,6′-dihydroxy-3-oxo-3H-spiro[isobenzofuran-1,9′-xanthene]-5-carboxamide) by competitive Wee1 inhibitors.
Table 1 depicts enzyme inhibition data (Ki) for exemplary compounds.
Turning to `O=C(Nc1ccc(Nc2ncc3c(=O)n(-c4ccccc4Cl)c4nccn4c3n2)cc1)C1CCCC1` [Example 58, N-(4-{[6-(2-chlorophenyl)-5-oxo-5,6-dihydroimidazo[1,2-a]pyrimido[5,4-e]pyrimidin-2-yl]amino}phenyl)cyclopentanecarboxamide], the Ki (in general, the dissociation constant of the complex between target and ligand, obtained from inhibition or displacement) fell in the range of 10 to 100 nM.
With `O=c1c2cnc(Nc3ccc(N4CCSCC4)cc3)nc2n2ccnc2n1-c1ccccc1Cl` [Example 270, 6-(2-chlorophenyl)-2-{[4-(thiomorpholin-4-yl)phenyl]amino}imidazo[1,2-a]pyrimido[5,4-e]pyrimidin-5(6H)-one], the Ki is less than 10 nM.
As to `CC1(C)CN(Cc2ccsc2)Cc2cc(Nc3ncc4c(=O)n(-c5ccccc5Cl)c5nccn5c4n3)ccc21` [Example 132, 6-(2-chlorophenyl)-2-{[4,4-dimethyl-2-(thiophen-3-ylmethyl)-1,2,3,4-tetrahydroisoquinolin-7-yl]amino}imidazo[1,2-a]pyrimido[5,4-e]pyrimidin-5(6H)-one], the inhibitory constant (Ki) is less than 10 nM.
`CN1CCN(c2cccc(Nc3ncc4c(=O)n(-c5ccccc5Cl)c5nccn5c4n3)c2)CC1` [Example 6, 6-(2-chlorophenyl)-2-{[3-(4-methylpiperazin-1-yl)phenyl]amino}imidazo[1,2-a]pyrimido[5,4-e]pyrimidin-5(6H)-one]: the inhibition constant (Ki) was less than 10 nM.
On to `O=c1c2cnc(Nc3ccc(-c4cn5c(n4)SCC5)cc3)nc2n2ccnc2n1-c1ccccc1Cl` [Example 220, 6-(2-chlorophenyl)-2-{[4-(2,3-dihydroimidazo[2,1-b][1,3]thiazol-6-yl)phenyl]amino}imidazo[1,2-a]pyrimido[5,4-e]pyrimidin-5(6H)-one], for which the Ki is 10 to 100 nM.
On to `O=c1c2cnc(Nc3ccc(N4CC5CNCC5C4)cc3)nc2n2ccnc2n1-c1ccccc1Cl` (stereo not drawn) [Example 292, 6-(2-chlorophenyl)-2-{[4-(hexahydropyrrolo[3,4-c]pyrrol-2(1H)-yl)phenyl]amino}imidazo[1,2-a]pyrimido[5,4-e]pyrimidin-5(6H)-one], for which the Ki was less than 10 nM.
Take `O=c1c2cnc(Nc3ccc(N4CCN5CCC[C@@H]5C4)cc3)nc2n2ccnc2n1-c1ccccc1Cl` [Example 204, 6-(2-chlorophenyl)-2-({4-[(8aR)-hexahydropyrrolo[1,2-a]pyrazin-2(1H)-yl]phenyl}amino)imidazo[1,2-a]pyrimido[5,4-e]pyrimidin-5(6H)-one]: the inhibition constant (Ki) is less than 10 nM.
Consider `CN(C)CCNc1ccc(Nc2ncc3c(=O)n(-c4ccccc4Cl)c4nccn4c3n2)cc1` [Example 234, 6-(2-chlorophenyl)-2-[(4-{[2-(dimethylamino)ethyl]amino}phenyl)amino]imidazo[1,2-a]pyrimido[5,4-e]pyrimidin-5(6H)-one], for which the Ki was less than 10 nM.
Consider `CN1CCN(c2ccc(Nc3ncc4c(=O)n(-c5cccc(Cl)c5)c5nccn5c4n3)cc2)CC1` [Example 337, 6-(3-chlorophenyl)-2-{[4-(4-methylpiperazin-1-yl)phenyl]amino}imidazo[1,2-a]pyrimido[5,4-e]pyrimidin-5(6H)-one], for which the Ki is greater than 100 nM.
Turning to `Cc1cc(OCCCN2CCN(C)CC2)ccc1Nc1ncc2c(=O)n(-c3ccccc3Cl)c3nccn3c2n1` [Example 77, 6-(2-chlorophenyl)-2-({2-methyl-4-[3-(4-methylpiperazin-1-yl)propoxy]phenyl}amino)imidazo[1,2-a]pyrimido[5,4-e]pyrimidin-5(6H)-one], the inhibitory constant (Ki) is greater than 100 nM.
On to `O=c1c2cnc(Nc3ccc(C(F)(F)F)cc3)nc2n2ccnc2n1-c1ccccc1Cl` [Example 348, 6-(2-chlorophenyl)-2-{[4-(trifluoromethyl)phenyl]amino}imidazo[1,2-a]pyrimido[5,4-e]pyrimidin-5(6H)-one], for which the inhibition constant Ki is greater than 100 nM.
Take `CCN(CC)CCCOc1ccc(Nc2ncc3c(=O)n(-c4ccccc4Cl)c4nccn4c3n2)cc1C` [Example 103, 6-(2-chlorophenyl)-2-({4-[3-(diethylamino)propoxy]-3-methylphenyl}amino)imidazo[1,2-a]pyrimido[5,4-e]pyrimidin-5(6H)-one]: the Ki was less than 10 nM.
`CN(C)C1Cc2ccc(Nc3ncc4c(=O)n(-c5ccccc5Cl)c5nccn5c4n3)cc2C1` (stereo not drawn) [Example 94, 6-(2-chlorophenyl)-2-{[2-(dimethylamino)-2,3-dihydro-1H-inden-5-yl]amino}imidazo[1,2-a]pyrimido[5,4-e]pyrimidin-5(6H)-one]: the Ki is less than 10 nM.
Take `CC1(C)CN(Cc2cc(F)cc(C(F)(F)F)c2)Cc2cc(Nc3ncc4c(=O)n(-c5ccccc5Cl)c5nccn5c4n3)ccc21` [Example 358, 6-(2-chlorophenyl)-2-({2-[3-fluoro-5-(trifluoromethyl)benzyl]-4,4-dimethyl-1,2,3,4-tetrahydroisoquinolin-7-yl}amino)imidazo[1,2-a]pyrimido[5,4-e]pyrimidin-5(6H)-one]: the Ki lay within 10 to 100 nM.
Regarding `O=c1c2cnc(Nc3ccc4c(c3)CNCC43CC3)nc2n2ccnc2n1-c1c(Cl)cccc1Cl` [Example 109, 6-(2,6-dichlorophenyl)-2-(2′,3′-dihydro-1′H-spiro[cyclopropane-1,4′-isoquinolin]-7′-ylamino)imidazo[1,2-a]pyrimido[5,4-e]pyrimidin-5(6H)-one], the inhibition constant Ki is less than 10 nM.
As for `O=c1c2cnc(Nc3ccc(-c4nccs4)cc3)nc2n2ccnc2n1-c1ccccc1Cl` [Example 350, 6-(2-chlorophenyl)-2-{[4-(1,3-thiazol-2-yl)phenyl]amino}imidazo[1,2-a]pyrimido[5,4-e]pyrimidin-5(6H)-one], the Ki fell in the range of 10 to 100 nM.
In the case of `O=c1c2cnc(Nc3ccc(N4CC5(CCNC5)C4)cc3)nc2n2ccnc2n1-c1c(Cl)cccc1Cl` [Example 313, 2-{[4-(2,6-diazaspiro[3.4]oct-2-yl)phenyl]amino}-6-(2,6-dichlorophenyl)imidazo[1,2-a]pyrimido[5,4-e]pyrimidin-5(6H)-one], the inhibition constant Ki is less than 10 nM.
For `CC1(C)CN(CCCC(F)(F)F)Cc2cc(Nc3ncc4c(=O)n(-c5ccccc5Cl)c5nccn5c4n3)ccc21` [Example 145, 6-(2-chlorophenyl)-2-{[4,4-dimethyl-2-(4,4,4-trifluorobutyl)-1,2,3,4-tetrahydroisoquinolin-7-yl]amino}imidazo[1,2-a]pyrimido[5,4-e]pyrimidin-5(6H)-one], the Ki is less than 10 nM.
In the case of `COc1cc(Nc2ncc3c(=O)n(-c4ccccc4Cl)c4nccn4c3n2)ccc1N1CCN(C)CC1` [Example 65, 6-(2-chlorophenyl)-2-{[3-methoxy-4-(4-methylpiperazin-1-yl)phenyl]amino}imidazo[1,2-a]pyrimido[5,4-e]pyrimidin-5(6H)-one], the Ki is less than 10 nM.
With `CCN1C[C@H]2C[C@@H](C1)CN(C(=O)c1ccc(Nc3ncc4c(=O)n(-c5c(Cl)cccc5Cl)c5nccn5c4n3)cc1)C2` [Example 202, 6-(2,6-dichlorophenyl)-2-[(4-{[(1R,5S)-7-ethyl-3,7-diazabicyclo[3.3.1]non-3-yl]carbonyl}phenyl)amino]imidazo[1,2-a]pyrimido[5,4-e]pyrimidin-5(6H)-one] the figure was less than 10 nM; with `O=c1c2cnc(Nc3ccc(N4CCN5CCC[C@@H]5C4)cc3)nc2n2ccnc2n1-c1c(F)cccc1Cl` [Example 244, 6-(2-chloro-6-fluorophenyl)-2-({4-[(8aR)-hexahydropyrrolo[1,2-a]pyrazin-2(1H)-yl]phenyl}amino)imidazo[1,2-a]pyrimido[5,4-e]pyrimidin-5(6H)-one], less than 10 nM.
